Experimental data published in patent publication US6391897B2, “Biphenyl oxo-acetic acids useful in the treatment of insulin resistance and hyperglycemia” (American Home Products Corporation, priority 1998, dated 2002).
Where two headings read alike, the source gives them in different places.

What was measured:
Human recombinant PTP1B = molecular target: T1, Human recombinant PTP1B (Homo sapiens, UniProt P18031); assay: Inhibition of tri-phosphorylated insulin receptor dodecaphosphopeptide dephosphorylation by hPTP1B (malachite green); type: biochemical; conditions: compound at 2.5 uM
T1 construct: made in house
T1 sequence (P18031 1-435): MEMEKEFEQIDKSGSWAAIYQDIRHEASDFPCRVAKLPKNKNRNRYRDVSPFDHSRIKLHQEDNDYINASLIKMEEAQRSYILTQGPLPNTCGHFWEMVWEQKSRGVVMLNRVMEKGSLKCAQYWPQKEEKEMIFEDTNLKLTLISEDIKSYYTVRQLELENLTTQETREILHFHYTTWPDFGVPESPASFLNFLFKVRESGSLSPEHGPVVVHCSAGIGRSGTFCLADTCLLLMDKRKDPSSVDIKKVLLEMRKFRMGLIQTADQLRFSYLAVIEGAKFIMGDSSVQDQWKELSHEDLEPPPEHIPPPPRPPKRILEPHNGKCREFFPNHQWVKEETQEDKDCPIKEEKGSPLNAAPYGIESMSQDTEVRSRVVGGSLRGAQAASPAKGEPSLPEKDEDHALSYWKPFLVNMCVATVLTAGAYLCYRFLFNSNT

diabetic (ob/ob) mice = assay: Blood glucose lowering in diabetic (ob/ob) mice; type: in vivo; conditions: Mus musculus, po
[1] = read-out: % Change Insulin from Vehicle

Row | Structure (SMILES) | percent of phosphatase control (change) at 2.5 uM (Human recombinant PTP1B) | change in vivo at 100 mg/kg (diabetic (ob/ob) mice; [1]) [%] | change in vivo at 100 mg/kg (diabetic (ob/ob) mice; 96 h, plasma glucose on Day 4, 7 or 14, read-out: % Change Glucose from Vehicle) [%]
1 | COC(=O)[C@H](Cc1ccccc1)Oc1ccc(-c2ccc(-c3c(Cc4ccccc4)oc4ccccc34)cc2)cc1 [Example 23, (2S)-2-[4′-(2-Benzyl-benzofuran-3-yl)-biphenyl-4-yloxy]-3-phenyl-propionic acid methyl ester] | −36 (2.5 uM) % | – | –
2 | O=C(c1ccccc1)c1oc2ccccc2c1-c1ccc(-c2ccc(OC(Cc3ccccc3)C(=O)O)cc2)cc1 (centres unmarked) [Example 14, 2-[4′-(2-Benzoyl-benzofuran-3-yl)-biphenyl-4-yloxy]-3-phenyl-propionic acid] | – | 19.8 | –
3 | O=C(O)C(Cc1ccccc1)Oc1ccc(-c2ccc(-c3c(Br)oc4ccccc34)cc2)cc1 (centres unmarked) [Example 7, 2-[4′-(2-Bromo-benzofuran-3-yl)-biphenyl-4-yloxy]-3-phenyl-propionic acid] | −58 (2.5 uM) % | – | –
4 | CC(=O)c1ccc(-c2ccc(-c3ccc(O[C@@H](Cc4ccccc4)C(=O)[O-])cc3)cc2)s1.[Na+] [Example 71, (2S)-2-[4′-(5-acetyl-thiophen-2-yl)-biphenyl-4-yloxy]-3-phenyl-propionic acid sodium salt] | −43 (2.5 uM) % | – | –
5 | O=C(O)[C@H](Cc1ccccc1)Oc1ccc(-c2ccc(-c3nc4ccccc4n3Cc3ccccc3)cc2)cc1 [Example 70, (2S)-2-[4′-(1-Benzyl-1H-benzimidazol-2-yl)-biphenyl-4-yloxy]-3-phenyl-propionic acid] | −41 (2.5 uM) % | – | –
6 | O=C(O)COc1ccc(-c2ccc(-c3c(Br)oc4ccccc34)cc2)cc1 [Example 6, [4′-(2-Bromo-benzofuran-3-yl)-biphenyl-4-yloxy]-acetic acid] | −15 (2.5 uM) % | – | –
7 | CC1(COc2ccc(CC3SC(=O)NC3=O)cc2)CCCCC1 (centres unmarked) [Ciglitazone, 5-(4-(1-methylcyclohexylmethoxy)benzyl)-2,4-dione] | – | -39 | -43
